Experimental findings from patent US10440955B2, “Methods comprising a biocidal polyamine” (Curza Global, LLC, priority 2013, dated 2019) are described below.

Usually MIC stands for the lowest concentration found to suppress growth.

Values after ≈ are worked out from the molar mass of the structure shown. Counter-ions that a name gives are not always drawn. Like-named read-outs stand apart in the source and are kept apart here.

The test system of data set [1] is MRSA. Kind of data set: MIC, 96-well CAMHB, 10^5 to 10^2 CFU/mL in 24 hours. Conditions: for MIC: Staphylococcus aureus, MRSA, read-out: MIC (MRSA). The class given is cell-based, Staphylococcus aureus. As to the method:
(§1) To determine the MIC of polyamine compounds, the protocol described herein was used.
In brief, a 0.5 McFarland of each bacterial isolate was made. A 0.5 McFarland is a measure of turbidity in a liquid sample that contains approximately 1×10^∧8 CFU/mL. The 0.5 McFarland standard was diluted in cation adjusted Mueller Hinton Broth (CAMHB), and 50 μL of broth were added to a well of a 96-well plate. In addition, 50 μL of CAMHB that contained a desired concentration of antimicrobial were also added to the well for a final volume of 100 μL and a final concentration of approximately 5×10^4 CFU/well (which equated to approximately 5×10^5 CFU/mL). Each well contained a desired amount of polyamine compound in order to experimentally determine the MIC. Each 96-well plate was incubated at 37° C. for 24 hours. The contents of each well were plated on tryptic soy agar (TSA). TSA plates were incubated for 37° C. for 24 hours after which the number of CFU were counted and used to calculate the CFU/mL that remained after exposure to varying concentrations of compound. This procedure was repeated n=8 times for each concentration of antimicrobial. […]

The subject of data set [2] is P. aeruginosa. The description is as above. Conditions: for MIC: Pseudomonas aeruginosa. It is filed as cell-based, Pseudomonas aeruginosa. How it is done: as §1
In brief, a 0.5 McFarland of each bacterial isolate was made. A 0.5 McFarland is a measure of turbidity in a liquid sample that contains approximately 1×10^∧8 CFU/mL. The 0.5 McFarland standard was diluted in cation adjusted Mueller Hinton Broth (CAMHB), and 50 μL of broth were added to a well of a 96-well plate. In addition, 50 μL of CAMHB that contained a desired concentration of antimicrobial were also added to the well for a final volume of 100 μL and a final concentration of approximately 5×10^4 CFU/well (which equated to approximately 5×10^5 CFU/mL). Each well contained a desired amount of polyamine compound in order to experimentally determine the MIC. Each 96-well plate was incubated at 37° C. for 24 hours. The contents of each well were plated on tryptic soy agar (TSA). TSA plates were incubated for 37° C. for 24 hours after which the number of CFU were counted and used to calculate the CFU/mL that remained after exposure to varying concentrations of compound. This procedure was repeated n=8 times for each concentration of antimicrobial.

The subject of data set [3] is L-929 cells (ATCC CCL-1). The experiment in a line: Minimal Essential Media (MEM) Elution cytotoxicity test. It is filed as cell-based. To be noted: Table 11A. How it is done:
Summary: The Minimal Essential Media (MEM) Elution test was designed to determine the cytotoxicity of extractable substances. The test article was added to cell monolayers and incubated. The cell monolayers were examined and scored based on the degree of cellular destruction.
Acceptance Criteria: The United States Pharmacopeia & National Formulary (USP <87>) states that the test article meets the requirements, or receives a passing score (Pass) if the reactivity grade is not greater than grade 2 or a mild reactivity.
Acceptance criteria were based upon the negative and media controls receiving “0” reactivity grades and positive controls receiving a 3-4 reactivity grades (moderate to severe).
The cell monolayers were examined microscopically. The wells were scored as to the degree of discernable morphological cytotoxicity on a relative scale of 0 to 4:
The results from the three wells were averaged to give a final cytotoxicity score.
[…] This initial concentration was then diluted 1: 2, 1:4, 1:8, and 1:16. Multiple well cell culture plates were seeded with a verified quantity of industry standard L-929 cells (ATCC CCL-1) and incubated until approximately 80% confluent. The test articles and control extracts were added to the cell monolayers in triplicate. The cells were incubated at 37±1° C. with 5±1% CO2 for 48±3 hours.

Setting [4] is: read-out: MIC (P. aeruginosa), Table 5.
[5] abbreviates: Table 5, read-out: MIC (P. aeruginosa).

Take `CC(C)CNCCCNCCCNCc1cccc(-c2cc(CNCCCNCCCNCC(C)C)cc(CNCCCNCCCNCC(C)C)c2)c1` [CZ-99, N^1,N^1′,N^1″-([1,1′-biphenyl]-3,3′,5-triyltris(methylene))tris(N^3-(3-(isobutylamino)propyl)propane-1,3-diamine)]: in data set [1] (Table 5), the minimal inhibitory concentration (MIC) was below 50 µM. The “MIC (P. aeruginosa)” value in data set [2] (Table 5) is on record as “++ to +++”. For the same compound, the “Results Pass/Fail” value in data set [3] (25 μg/mL), in data set [3] (dilution 1:2 of 25 μg/mL), in data set [3] (dilution 1:4 of 25 μg/mL), in data set [3] (dilution 1:8 of 25 μg/mL) and in data set [3] (dilution 1:16 of 25 μg/mL) was “Pass (receives a passing score (Pass) if the reactivity grade is not greater than grade 2 or a mild reactivity)” in each case.
With `CCCCOc1cc(CNCCCNCCCN)cc(CNCCCNCCCN)c1` [CZ-76, N^1,N^1′-((5-butoxy-1,3-phenylene)bis(methylene))bis(N3-(3-aminopropyl)propane-1,3-diamine), hydrochloride salt], the MIC is below 50 µM in data set [1] and 50 to 100 µM in data set [2] (setting [4]).
With `NCCCNCCCNCc1cccc(CNCCCNCCCN)c1` [CZ-42], the “MIC (MRSA)” value in data set [1] (Table 5) was “++ (++ = 100 μM ≥ MIC ≥ 50 μM. MIC results of “>n μM” or “<n μM” will also be designated as ++ if 100 ≥ n ≥ 50.)”. Besides, the minimal inhibitory concentration (MIC) in data set [2] (setting [5]) fell in the range of 50 to 100 µM (≈ 18.2 to 36.5 µg/mL).
Take `CC(C)CNCCCNCCCNCc1cc(CNCCCNCCCNCC(C)C)cc(OCc2ccccc2)c1` [CZ-106, N^1,N^1′-((5-(benzyloxy)-1,3-phenylene)bis(methylene))bis(N^3-(3-(isobutylamino)propyl)propane-1,3-diamine)]: the minimum inhibitory concentration (MIC) in data set [1] (Table 5) is below 50 µM; in data set [2] (setting [5]), 50 to 100 µM (≈ 29.1 to 58.3 µg/mL).
In the case of “tri-tert-butyl-(((((benzene-1,3,5-triyltris(methylene))tris(azanediyl))tris-(propane-3,1-diyl))tris(azanediyl))tris(propane-3,1-diyl))tricarbamate, hydrochloride salt [CZ-54]”, the “MIC (MRSA)” value in data set [1] (Table 5) is “+++ (+++ = 50 μM > MIC. MIC results of “>n μM” or “<n μM” will also be designated as +++ if n <50.)”. For the same compound, the “MIC (P. aeruginosa)” value in data set [2] (Table 5) is reported as “+++ (+++ = 50 μM > MIC. MIC results of “>n μM” or “<n μM” will also be designated as +++ if n <50.)”.
For `CC(C)CNCCCCCCCCCCCCNCc1cc(CNCCCCCCCCCCCCNCC(C)C)cc(-c2ccccc2)c1` [CZ-116, N^1,N^1′-([1,1′-biphenyl]-3,5-diylbis(methylene))bis(N^12-isobutyldodecane-1,12-diamine)], the minimum inhibitory concentration (MIC) in data set [1] (Table 5) and in data set [2] (setting [5]) was below 50 µM in each case.
Regarding `CC(C)(C)OC(=O)NCCCNCCCNCc1cc(CNCCCNCCCN)cc(CNCCCNCCCN)c1` [CZ-51, tert-butyl (3-((3-((3,5-bis(((3-((3-aminopropyl)amino)propyl)amino)methyl)-benzyl)amino)propyl)amino)propyl)carbamate], the MIC in data set [1] (Table 5) and in data set [2] (setting [5]) was below 50 µM each time.
On to `CCCCCCNCCCNCCCNCc1cc(CNCCCNCCCNCCCCCC)cc(-c2ccccc2)c1` [CZ-114, N^1,N^1′-([1,1′-biphenyl]-3,5-diylbis(methylene))bis(N^3-(3-(hexylamino)propyl)propane-1,3-diamine)], for which the MIC in data set [1] (Table 5) and in data set [2] (setting [5]) was below 50 µM each time.
Consider “N^1,N^1′,N^1″-((4′-(trifluoromethyl)-[1,1′-biphenyl]-3,3′,5-triyl)tris(methylene))tris(N3-(3-aminopropyl)propane-1,3-diamine), hydrochloride salt [CZ-69]”, for which, in data set [1] (Table 5), the “MIC (MRSA)” value is “+++ (+++ = 50 μM > MIC. MIC results of “>n μM” or “<n μM” will also be designated as +++ if n <50.)”. Also, the “MIC (P. aeruginosa)” value in data set [2] (Table 5) is listed as “+++ (+++ = 50 μM > MIC. MIC results of “>n μM” or “<n μM” will also be designated as +++ if n <50.)”.
Take `O=C1NCCCN1CCCNCc1cc(CNCCCN2CCCNC2=O)cc(-c2ccccc2)c1` [CZ-89, 1,1′-((([1,1′-biphenyl]-3,5diylbis(methylene))bis(azanediyl))bis(propane-3,1-diyl))bis(tetrahydropyrimidin-2(1H)-one)]: the MIC in data set [1] (Table 5) and in data set [2] (setting [5]) was below 50 µM throughout.
`CC(C)CNCCCNCCCNCc1cc(Br)cc(CNCCCNCCCNCC(C)C)c1` [CZ-109, N^1,N^1′-((5-bromo-1,3-phenylene)bis(methylene))bis(N^3-(3-(isobutylamino)propyl)propane-1,3-diamine)]: the MIC in data set [1] (Table 5) and in data set [2] (setting [5]) was below 50 µM throughout.
For `NCCCNCCCNCc1cc(CNCCCNCCCN)cc(OCc2ccccc2)c1` [CZ-95, N^1,N^1′-((5-(Benzyloxy)-1,3-phenylene)bis(methylene))bis(N^3-(3-aminopropyl)propane-1,3-diamine), hydrochloride salt], the minimum inhibitory concentration (MIC) in data set [1] and in data set [2] (setting [4]) was below 50 µM each time.
With `CC(C)CNCCCNCCCCNCc1cc(CNCCCCNCCCNCC(C)C)cc(-c2ccccc2)c1` [CZ-111, N^1,N^1′-([1,1′-biphenyl]-3,5-diylbis(methylene))bis(N^4-(3-(isobutylamino)propyl)butane-1,4-diamine)], the minimal inhibitory concentration (MIC) in data set [1] (Table 5) and in data set [2] (setting [5]) was below 50 µM throughout.
Regarding `NCCCNCCCNCc1cc(CNCCCNCCCN)cc(-c2ccc(C(=O)N3CCCCC3)cc2)c1` [CZ-88, (3′,5′-Bis(((3-((3-aminopropyl)amino)propyl)amino)methyl)-[1,1′-biphenyl]-4-yl) (piperidin-1-yl)methanone], the MIC in data set [1] (Table 5) and in data set [2] (setting [5]) was below 50 µM in each case.
`CCCCCCNCCCNCCCCNCc1cc(CNCCCCNCCCNCCCCCC)cc(-c2ccccc2)c1` [CZ-118, N^1,N^1′-([1,1′-biphenyl]-3,5-diylbis(methylene))bis(N^4-(3-(hexylamino)propyl)butane-1,4-diamine)]: the MIC in data set [1] (Table 5) and in data set [2] (setting [5]) was below 50 µM throughout.
On to `CC(C)CNCCCCCCCCCCCCNCc1cccc(-c2cc(CNCCCCCCCCCCCCNCC(C)C)cc(CNCCCCCCCCCCCCNCC(C)C)c2)c1` [CZ-117, N^1,N^1′,N^1″-([1,1′-biphenyl]-3,3′,5-triyltris(methylene))tris(N^12-isobutyldodecane-1,12-diamine)], for which the minimum inhibitory concentration (MIC) in data set [1] (Table 5) and in data set [2] (setting [5]) was below 50 µM each time.
Consider `NCCCNCCCNCc1cc(CNCCCNCCCN)cc(OC2CCCCC2)c1` [CZ-105], for which the minimum inhibitory concentration (MIC) is below 50 µM in data set [1] (Table 5) and 50 to 100 µM (≈ 23.1 to 46.3 µg/mL) in data set [2] (setting [5]).
For `NCCCNCc1cc(CNCCCN)cc(-c2ccccc2)c1` [CZ-77, N^1,N^1′-([1,1′-biphenyl]-3,5-diylbis(methylene))bis(propane-1,3-diamine), hydrochloride salt], the minimum inhibitory concentration (MIC) in data set [1] and in data set [2] (setting [4]) was below 50 µM each time.
`NCCCCCCCCCCCCNCc1cc(CNCCCCCCCCCCCCN)cc(-c2ccccc2)c1` [CZ-115, N^1,N^1′-([1,1′-biphenyl]-3,5-diylbis(methylene))bis(dodecane-1,12-diamine)]: the MIC in data set [1] (Table 5) and in data set [2] (setting [5]) was below 50 µM in each case.
For `NCCCNCCCNCc1cc(O)cc(CNCCCNCCCN)c1` [CZ-87, 3,5-bis(((3-((3-aminopropyl)amino)propyl)amino)methyl)phenol], the minimum inhibitory concentration (MIC) in data set [1] (Table 5) and in data set [2] (setting [5]) was below 50 µM each time.
